Source: publication PMC6502800, “Visualizing the cellular route of entry of a cystine-knot peptide with Xfect transfection reagent by electron microscopy” (Scientific Reports, 2019)

What was measured:
HeLa cells [1] = assay: Uptake of cargo into cells pre-treated with Xfect
Procedure: Cells were fixed with 4% PFA and processed as described in methods. […] Values were normalized to the 6 h Xfect treated samples. Mean ± SD. n = 1000 cells. Representative images from three independent experiments are shown. Scale bar, 20 µm.
(a–d) HeLa cells were incubated with Xfect for indicated times then washed with PBS for three times and incubated with 30 nM SYTOX Red (a,b, Cy5 channel) or 200 nM YOYO-3 Iodide (c,d, Texas Red channel) for 20 min, and washed with PBS again. Cells were fixed with 4% PFA and processed as described in methods. […] Values were normalized to the 24 h Xfect treated samples. Mean ± SD. n = 1000 cells. Representative images from three independent experiments are shown. Scale bar, 20 µm.
cells.HeLa cells were incubated with Xfect for the indicated times, then washed with PBS
forthree times and incubated with 30 nM SYTOX Red (a, Cy5 channel) or 200 nM YOYO-3
Iodide (b, Texas Red channel) for 20 min, and washed with PBS again. Cells were fixed with
4% PFA and processed as described in methods. Representative images from three
independent experiments are shown. Scale bar, 20 µm. Images are normalized to saturation
atthe 24 h time point in order to show the cellular distribution of early time point samples.

HeLa cells [2] = assay: Detergent-based cell permeabilization assay
Procedure: Figure 4 Internalized rEETI-II/Xfect is found in compartments that are resistant to detergent permeabilization. […] Cells were then incubated with PBS, 0.1% Triton X-100, 0.04% Saponin, 0.01% Saponin, or 25 μM Digitonin in PBS for 5 min at room temperature, washed and imaged. […] Mean ± SD. n = 1000 cells. Representative images from at least three independent experiments are shown. Scale bar, 20 μm.
For cell permeabilization experiments, HeLa cells were incubated with 5 μM rEETI-II-A488 with or without Xfect for 60 min, or transferrin (labeled with Alexa 555, 0.2 mg/ml) for 10 min, at 37 °C/5% CO2, washed three times with cold PBS. Cells were then fixed with 4% PFA for 20 min at room temperature, washed three times with PBS, and incubated with either PBS, or detergent containing PBS for 5 min at room temperature. Cells were washed again. […] Fluorescence images were captured on a high throughput ImageXpress Micro XL imaging system (Molecular Devices) and images were analyzed by MetaXpress 4.0. Fluorescence intensity values above a threshold defined using the DMSO-treated samples were measured and used to quantify integrated fluorescence intensity per cell or percentage of dye-positive cells. […] Cells were incubated with Hoechst 333421 (5 µg/ml in PBS) for 10 min and washed three times with PBS then imaged, analyzed as described above. […]

Compound | uptake of cell impermeable dye into cells pre-treated with Xfect (HeLa cells [1]; HeLa cells pre-treated with Xfect 3 h, washed, then dye 20 min (SYTOX Red 30 nM; YOYO-3 Iodide 200 nM), fluorescence imaging) | uptake of dye into cells in the absence of Xfect preincubation (HeLa cells [1]; HeLa cells, no Xfect, dye 20 min (SYTOX Red 30 nM; YOYO-3 Iodide 200 nM), negative control) | internalized transferrin staining after detergent permeabilization (HeLa cells [2])
C[n+]1c(C=CC=C2C=CN(CCC[N+](C)(C)CCC[N+](C)(C)CCCN3C=CC(=CC=Cc4oc5ccccc5[n+]4C)c4ccccc43)c3ccccc32)oc2ccccc21 [YOYO-3 Iodide] | observed to enter into cells | little to no uptake | 
transferrin-Alexa555: transferrin labeled with Alexa 555, marker of early and recycling endosomes |  |  | resistant to detergent extraction
